Reference: PMC9020739, “Identification of a two-component regulatory system involved in antimicrobial peptide resistance in Streptococcus pneumoniae” (PLoS Pathogens, 2022)
Values after ≈ are worked out from the molar mass of the structure shown.

Columns and labels:
[1] = system: S. pneumoniae D39 WT; assay type: cell-based, Streptococcus pneumoniae; details: D39 strain
Method: (§1) The MIC of various antimicrobial peptides for R6, R800 and D39 strains was determined by classical 2-fold broth dilution method. Cells were first grown in Todd-Hewitt medium at 37°C without agitation and in anaerobic conditions until the absorbance reaches approximatively 0.3. Complementation strains were grown with 0.5 μM ComS inducer until the appropriate OD. Cells were then diluted at final OD600nm = 0.002 in 96-well plates containing 300 μL of Todd-Hewitt medium (and 2 μM ComS inducer for the complementation strains) with serial dilutions of antimicrobial peptides. Pneumococcal growth was monitored by a microplate reader (TECAN) at 37°C without agitation. The absorbance was followed at 600 nm every 15 min for 15 h.

[2] = system: S. pneumoniae D39 ΔbceAB/tcs01; assay type: cell-based, Streptococcus pneumoniae; details: D39 strain; 2-fold broth dilution, Todd-Hewitt medium, 37°C, 15 h; two to four biological replicates, each technical duplicates
Method: as §1

[3] = system: S. pneumoniae D39 ΔbceAB; assay type: cell-based, Streptococcus pneumoniae; details: D39 strain; 2-fold broth dilution, Todd-Hewitt medium, 37°C, 15 h; two to four biological replicates, each technical duplicates
Method: as §1

[4] = system: S. pneumoniae D39 Δtcs01; assay type: cell-based, Streptococcus pneumoniae; details: D39 strain; 2-fold broth dilution, Todd-Hewitt medium, 37°C, 15 h; two to four biological replicates, each technical duplicates
Method: as §1

[5] = system: S. pneumoniae R6 WT; assay type: cell-based, Streptococcus pneumoniae; details: R6 strain
Method: as §1

[6] = system: S. pneumoniae R6 ΔbceAB/tcs01; assay type: cell-based, Streptococcus pneumoniae; details: R6 strain; 2-fold broth dilution, Todd-Hewitt medium, 37°C, 15 h; two to four biological replicates, each technical duplicates
Method: as §1

[7] = system: S. pneumoniae R6 ΔbceAB; assay type: cell-based, Streptococcus pneumoniae; details: R6 strain; 2-fold broth dilution, Todd-Hewitt medium, 37°C, 15 h; two to four biological replicates, each technical duplicates
Method: as §1

[8] = system: S. pneumoniae R6 Δtcs01; assay type: cell-based, Streptococcus pneumoniae; details: R6 strain; 2-fold broth dilution, Todd-Hewitt medium, 37°C, 15 h; two to four biological replicates, each technical duplicates
Method: as §1

[9] = system: S. pneumoniae R800 WT; assay type: cell-based, Streptococcus pneumoniae; details: R800 strain; 2-fold broth dilution, Todd-Hewitt medium, 37°C, 15 h; at least biological triplicates, each technical duplicates
Method: as §1

[10] = system: S. pneumoniae R800 bceAB-gfp; assay type: cell-based, Streptococcus pneumoniae; details: R800 strain; 2-fold broth dilution, Todd-Hewitt medium, 37°C, 15 h; at least biological triplicates, each technical duplicates
Method: as §1

[11] = system: S. pneumoniae R800 ΔbceAB-Δhk01-PcomX-hk01; assay type: cell-based, Streptococcus pneumoniae; details: R800 complementation strain, 2 μM ComS inducer; 2-fold broth dilution, Todd-Hewitt medium, 37°C, 15 h; at least biological triplicates, each technical duplicates
Method: as §1

[12] = system: S. pneumoniae R800 ΔbceAB; assay type: cell-based, Streptococcus pneumoniae; details: R800 strain; 2-fold broth dilution, Todd-Hewitt medium, 37°C, 15 h; at least biological triplicates, each technical duplicates
Method: as §1

[13] = system: S. pneumoniae R800 Δhk01-PcomX-hk01; assay type: cell-based, Streptococcus pneumoniae; details: R800 complementation strain, 2 μM ComS inducer; 2-fold broth dilution, Todd-Hewitt medium, 37°C, 15 h; at least biological triplicates, each technical duplicates
Method: as §1

[14] = system: S. pneumoniae R800 Δhk01; assay type: cell-based, Streptococcus pneumoniae; details: R800 strain; 2-fold broth dilution, Todd-Hewitt medium, 37°C, 15 h; at least biological triplicates, each technical duplicates
Method: as §1

[15] = target: BceAB transporter from S. pneumoniae (Streptococcus pneumoniae, UniProt A0A0H2ZN40); assay type: biochemical; details: BceAB proteoliposomes; Fig 7B; triplicates, representative of at least two experiments
Method: (§2) E. coli BL21(DE3) cells were transformed with pRSF-Duet1-BceAB WT, K48A or E170Q and selected on LB-agar plates containing 50 μg/mL kanamycin. One colony was inoculated into in 2L-baffled flasks containing 500 mL of 2YT medium and 50 μg/mL kanamycin and grown at 37°C, 180 rpm to OD600 of 0.6. Protein expression was induced by adding IPTG to a final concentration of 1 mM. Induction was performed overnight at 25°C and cells were harvested by centrifugation at 7,000 g for 20 min.
(§3) Cells were resuspended in buffer A (HEPES-NaOH 100 mM pH 8.0, NaCl 150 mM) and lysed by passaging them three times through a cell disruptor (Microfluidizer, Microfluidics) at 18,000 psi (or 1,24 x 108 Pa). Undisrupted cells and cell debris were removed by centrifugation at 15,000 x g for 30 min at 4°C. Membranes were harvested from the supernatant after ultracentrifugation at 150,000 x g for 1 h at 4°C. Membranes were resuspended in 20 mL of buffer A and centrifuged once again at 150,000 x g for 1 h at 4°C. Membrane pellets were homogenized in buffer HEPES-NaOH 100 mM pH 8.0, NaCl 150 mM and 20% glycerol, and stored at -80°C.
(§4) For the purification of BceAB, membranes from 0,5 L cell culture were diluted in buffer B (100 mM d’HEPES-NaOH pH 8, 150 mM NaCl, 10% glycerol) to a protein concentration of 4 mg/mL and solubilized with 0.5% (w/v) LMNG for 2 h at 4°C. After ultracentrifugation at 150,000 x g for 1 h at 4°C, the supernatant containing solubilized proteins was diluted four times using buffer B and loaded on Ni^2+-charged immobilized metal-ion affinity chromatography (IMAC) column (1 mL HisTrap HP, Cytiva). The column was washed with 10 mL of buffer B containing 0.005% (w/v) LMNG and 20 mM of imidazole. The column was further washed with the same buffer until OD280nm reached basal levels. BceAB was eluted by buffer B containing 0.005% (w/v) LMNG and an imidazole gradient from 20 to 500 mM of imidazole. Purified BceAB was dialyzed into buffer B containing 0.005% (w/v) LMNG and stored at -80°C.
(§5) The proteoliposomes were prepared as previously described for the transporter BmrA [50]. Proteoliposomes were loaded on sucrose gradient with different layers of 400 μL of 50 mM HEPES-KOH pH 8.0 buffer containing 30, 20, 15 or 10% of sucrose. One mL of proteoliposomes was loaded on the top of the sucrose gradient and ultra-centrifuged at 200,000 x g for 12 h at 4°C. Proteoliposomes were typically collected from the 15% layer and were loaded on SDS-PAGE to analyze and quantify the presence of BceAB by using a standard-curve of purified BceAB and ImageJ.
(§6) These activities were performed as previously described.

[16] = system: bceAB and tcs01 genes in S. pneumoniae D39 WT; experiment: Quantification of gene expression by qPCR; assay type: cell-based, Streptococcus pneumoniae; details: D39 wild-type; vancomycin 375 ng/ml for 15 min; n = 8
Method: S. pneumoniae D39 WT and Δtcs01 strains were routinely grown to OD600nm = 0.3 in THY. Then 1 μg/mL of bacitracin was added to the growth media for up to 30 min. Samples were taken at time points shown in the results section. Next, the cultures were mixed with RNA protect (Qiagen) at 1:1 ratio and incubated at room temperature for 5 min and centrifuged for 10 min at 3, 200 g at 4°C. The supernatant was decanted and the pellet was stored at -80°C. The bacteria were resuspended in 100 μL of sterile Tris-EDTA (TE), containing 15 mg/mL lysozyme (Sigma) then 20 μL of Proteinase K (20 mg/mL) (Roche) were added. The sample was vortexed 5 times for 10 sec at two-minutes intervals. Then 350 μL of lysis buffer from the Nucleospin RNA kit (Macherey-Nagel) were added to the sample with 3.5 μL of β-mercaptoethanol and 25 mg of glass beads (Sigma). The cells were lysed by continual vortexing for 5 min. The mRNA was extracted according to the manufacturer’s instructions. After elution, RNA samples were incubated with 5 μL of DNAse for 20 min at room temperature, then inactivated by heating for 70°C for 5 min. RNA concentration was measured using Nanovue (GE Healthcare). For cDNA synthesis 1 μg of RNA was generally used with the SuperScript III kit (Invitrogen) containing a reverse transcriptase, a set of primers, dNTPs, MgCl2 random hexamers and […] after the cDNA generation according to manufacturer’s instructions. Samples were then stored at -20°C. qPCR measurements were done with 2.5 μL of cDNA mixed with 1 μL (3 μM final) of forward and reverse primers, 5 μL iQ SYBR Green Supermix (BioRad) and 0.5 μL water using the CFX Connect Optical Module (BioRad) program as follows: 95°C for 3 min, then a repeat 40 times of 95°C for 10 sec, 55°C for 30 sec, and a fluorescence reading.

[17] = system: Nc1nc2c(ncn2[C@@H]2O[C@H](COP(=O)(O)OP(=O)(O)OP(=O)(O)O)[C@@H](O)[C@H]2O)c(=O)[nH]1; experiment: purified protein, by the assay type; assay type: biochemical, Streptococcus pneumoniae; details: other: ATPase/GTPase activity as a function of nucleotide concentration, fitted with positive cooperativity; proteoliposomes; pH 8.0
Method: as §2, §3, §4, §5, §6

[18] = system: Nc1ncnc2c1ncn2[C@@H]1O[C@H](COP(=O)(O)OP(=O)(O)OP(=O)(O)O)[C@@H](O)[C@H]1O; experiment: purified protein, by the assay type; assay type: biochemical, Streptococcus pneumoniae; details: other: ATPase/GTPase activity as a function of nucleotide concentration, fitted with positive cooperativity; proteoliposomes; pH 8.0
Method: as §2, §3, §4, §5, §6

[19] = system: S. pneumoniae R6 WT and mutant strains; experiment: Susceptibility to HNP-1 (colony counts); assay type: cell-based, Streptococcus pneumoniae; details: R6 WT versus mutant strains, 5, 10 or 20 μg/ml, 30 min, 1 h or 2 h, 37°C, preliminary work (S7 Fig)
Method: Bacterial cells were routinely grown until OD600nm = 0.3 in THY and 5 mL of culture were centrifuged for 10 min at 5,000 g at 4°C. The pellet was resuspended in 5 ml of sterile PBS buffer and diluted twice at 1/100. 200 μl of the final dilution was incubated for 30 min, 1 h or 2 h at 37°C, 5% CO2 in 96-well plate with 5, 10 or 20 μg/ml of hNP1. Next, 10 μl from the final dilution (control cells at time zero in the absence of HNP-1) and the 96-well plate (cells incubated with HNP1) were plated onto pre-cast THY-agar medium supplemented with 4% defibrinated horse blood and incubated overnight at 37°C, […]. The next day, colonies were counted.

## CN[C@H](CC(C)C)C(=O)N[C@H]1C(=O)N[C@@H](CC(N)=O)C(=O)N[C@H]2C(=O)N[C@H]3C(=O)N[C@H](C(=O)N[C@H](C(=O)O)c4cc(O)cc(O)c4-c4cc3ccc4O)[C@H](O)c3ccc(c(Cl)c3)Oc3cc2cc(c3O[C@@H]2O[C@H](CO)[C@@H](O)[C@H](O)[C@H]2O[C@H]2C[C@](C)(N)[C@H](O)[C@H](C)O2)Oc2ccc(cc2Cl)[C@H]1O [vancomycin]
[1]; 2-fold broth dilution, Todd-Hewitt medium, 37°C, 15 h, two to four biological replicates, each technical duplicates
  Minimum Inhibitory Concentration, WT: 0.25 µg/mL
[1]; KO strains versus WT MIC
  Fold sensitivity diplayed by the KO strains: 1
[2]
  Minimum Inhibitory Concentration, ΔbceAB/tcs01: 0.25 µg/mL
[3]
  Minimum Inhibitory Concentration, ΔbceAB: 0.25 µg/mL
[4]
  Minimum Inhibitory Concentration, Δtcs01: 0.25 µg/mL
[5]; 2-fold broth dilution, Todd-Hewitt medium, 96-well plates, start OD600 0.002, 37°C, A600 followed 15 h, two to four biological replicates, each technical duplicates
  Minimum Inhibitory Concentration, WT: 0.5 µg/mL
[5]; KO strains versus WT MIC
  Fold sensitivity displayed by the KO strains: 1
[6]
  Minimum Inhibitory Concentration, ΔbceAB/tcs01: 0.5 µg/mL
[7]
  Minimum Inhibitory Concentration, ΔbceAB: 0.5 µg/mL
[8]
  Minimum Inhibitory Concentration, Δtcs01: 0.5 µg/mL
[9]
  MIC, WT: 0.25 µg/mL (≈ 0.173 µM)
[10]
  MIC, bceAB-gfp: 0.25 µg/mL (≈ 0.173 µM)
[11]
  MIC, ΔbceAB-Δhk01-PcomX-hk01: 0.25 µg/mL (≈ 0.173 µM)
[12]
  MIC, ΔbceAB: 0.25 µg/mL (≈ 0.173 µM)
[13]
  MIC, Δhk01-PcomX-hk01: 0.25 µg/mL (≈ 0.173 µM)
[14]
  MIC, Δhk01: 0.25 µg/mL (≈ 0.173 µM)
[15]
  Effect on ATPase activity of BceAB: did not significantly affect
[16]
  Transcription of the bceAB genes: no upregulation

## BceAB transporter from S. pneumoniae (Streptococcus pneumoniae D39)
[17]
  Km: 1300 µM
[18]
  Km: 1000 µM

## HNP1: human neutrophil defensin HNP1; purchased from Vivitide
[19]
  Resistance promoted by BceAB: does not promote resistance
